Laboratory results taken from ChEMBL document CHEMBL1130536 (Bioorg Med Chem Lett, 1997).

How the values were obtained:
Mus musculus [1] = organism: Mus musculus; assay: The compound was tested for Mean effective dose which protects the mice against seizures induced by Maximum electroshock (MES); type: functional
Mus musculus [2] = assay: Mean effective dose that protects 50% of the mice against AMPA-induced lethality when it administered ip, 60 minutes prior to application of AMPA icv; type: functional
Glutamate NMDA receptor = assay: Binding affinity against glycine binding site of NMDA receptor using [3H]glycine; type: protein-complex assay, Rattus norvegicus
[3] = target: Glutamate receptor ionotropic AMPA (Homo sapiens, UniProt P42261+P42262+P42263+P48058)
Description: In vitro binding affinity against AMPA receptor by [3H]AMPA displacement.

Mus musculus [4] = organism: Mus musculus; assay: The compound was tested for Mean effective dose which protects the mice against seizures induced by Maximum electroshock; type: functional
Mus musculus [5] = organism: Mus musculus; assay: Percent protection of the mice against seizures induced by Maximum electroshock, by the compound was determined; type: functional

Row | Compound | ED50 (Mus musculus [1]) | ED50 (Mus musculus [2]) | Ki (Glutamate NMDA receptor) | Ki [3] | ED50 (Mus musculus [4]) | Protection (Mus musculus [5])
1 | O=C(O)Cn1c(=O)c(=O)[nH]c2cc([N+](=O)[O-])c(-n3ccc(C(=O)O)c3)cc21 | 2.4 mg/kg | 1.4 mg/kg | > 30000 nM | – | – | –
2 | CCOC(=O)Cn1c(=O)c(=O)[nH]c2cc([N+](=O)[O-])c(-n3ccc(C(=O)O)c3)cc21 | – | – | – | 215 nM | – | –
3 | O=C(O)Cn1c(=O)c(=O)[nH]c2cc(C(F)(F)F)c(-n3ccc(CNC(=O)Nc4ccc(C(=O)O)cc4)c3)cc21 | 1.4 mg/kg | 0.27 mg/kg | > 30000 nM | 7 nM | – | –
4 | O=C(O)Cn1c(=O)c(=O)[nH]c2cc(C(F)(F)F)c(-n3ccc(CNC(=O)Nc4cccc(C(=O)O)c4)c3)cc21 | 13.5 mg/kg | 3.5 mg/kg | > 30000 nM | 20 nM | – | –
5 | CCOC(=O)c1ccc(NC(=O)NCc2ccn(-c3cc4nc(O)c(O)nc4cc3C(F)(F)F)c2)cc1 | – | – | – | 450 nM | – | –
6 | CCOC(=O)Cn1c(=O)c(=O)[nH]c2cc(C(F)(F)F)c(-n3ccc(C(=O)O)c3)cc21 | – | – | > 30000 nM | 1500 nM | – | –
7 | O=C(O)Cn1c(=O)c(=O)[nH]c2cc(C(F)(F)F)c(-n3ccc(C(=O)O)c3)cc21 | 2.4 mg/kg | 2.3 mg/kg | > 30000 nM | 66 nM | – | –
8 | O=C(NCc1ccn(-c2cc3nc(O)c(O)nc3cc2C(F)(F)F)c1)Nc1ccc(C(=O)O)cc1 | – | ~11 mg/kg | > 30000 nM | 54 nM | 46 mg/kg | 0%
9 | O=C(O)c1ccn(-c2cc3nc(O)c(O)nc3cc2[N+](=O)[O-])c1 | – | 17 mg/kg | > 30000 nM | 60 nM | – | –
10 | CCOC(=O)c1cccc(NC(=O)NCc2ccn(-c3cc4c(cc3C(F)(F)F)[nH]c(=O)c(=O)n4CC(=O)O)c2)c1 | 28.5 mg/kg | 2.9 mg/kg | > 30000 nM | 4 nM | – | –
11 | CCOC(=O)c1ccc(NC(=O)NCc2ccn(-c3cc4c(cc3C(F)(F)F)[nH]c(=O)c(=O)n4CC(=O)O)c2)cc1 | – | 0.8 mg/kg | > 30000 nM | 4 nM | – | –
12 | NS(=O)(=O)c1cccc2c1c([N+](=O)[O-])cc1nc(O)c(O)nc12 [NBQX] | – | – | 33000 nM | – | 46 mg/kg | 31%
13 | O=c1[nH]c2cc(-n3ccnc3)c([N+](=O)[O-])cc2[nH]c1=O [YM-90K] | – | 13 mg/kg | 7400 nM | – | – | –
